From PMC6691788, “Design and synthesis of phthalazine-based compounds as potent anticancer agents with potential antiangiogenic activity via VEGFR-2 inhibition” (Journal of Enzyme Inhibition and Medicinal Chemistry, 2019)

How the values were obtained:
Test in all cases: NCI 60 cell panel SRB screen
RXF 393 = assay type: cell-based; settings: Homo sapiens
PC-3 = assay type: cell-based; settings: Homo sapiens
KM12 = assay type: cell-based; settings: Homo sapiens
OVCAR-3 = assay type: cell-based; settings: Homo sapiens
UO-31 = assay type: cell-based; settings: Homo sapiens
UACC-257 = assay type: cell-based; settings: Homo sapiens
HCC-2998 = assay type: cell-based; settings: Homo sapiens
HOP-92 = assay type: cell-based; settings: Homo sapiens
NCI-H460 = assay type: cell-based; settings: Homo sapiens
HL-60(TB) = assay type: cell-based; settings: Homo sapiens
SF-268 = assay type: cell-based; settings: Homo sapiens
TK-10 = assay type: cell-based, human; settings: Homo sapiens; TK-10, single dose 10 μM; read-out: percent cell growth promotion
OVCAR-8 = assay type: cell-based; settings: Homo sapiens
SK-OV-3 = assay type: cell-based; settings: Homo sapiens
MOLT-4 = assay type: cell-based; settings: Homo sapiens
A549/ATCC = assay type: cell-based; settings: Homo sapiens
HT29 = assay type: cell-based; settings: Homo sapiens, HT-29
MDA-MB-468 = assay type: cell-based; settings: Homo sapiens
Experimental: The human tumor cell lines of the cancer-screening panel were grown in RPMI 1640 medium containing 5% fetal bovine serum and […] L-glutamine. For a typical screening experiment, cells are inoculated into 96 well microtiter plates in 100 ml at plating densities ranging from 5000 to 40,000 cells/well depending on the doubling time of individual cell lines. After cell inoculation, the microtiter plates are incubated at 37 °C, 5% CO2, 95% air and 100%
relative humidity for 24 h prior to addition of experimental drugs. After 24 h, two plates of each cell line are fixed in situ with TCA, to represent a measurement of the cell population for each cell line at the time of drug addition (Tz). Experimental drugs are dissolved in dimethyl sulfoxide at 400-fold the desired final maximum test concentration and stored frozen prior to use. At the time of drug addition, an aliquot of frozen concentrate is thawed and diluted to twice the desired final maximum test concentration with complete medium containing […] Gentamicin. Additional four, 10-fold or ½log serial dilutions are made to provide a total of five drug concentrations plus control. Aliquots of […] of these different drug dilutions are added to the appropriate microtiter wells already containing 100 ml of medium, resulting in the required final drug concentrations. Following drug addition, the plates are incubated for an additional 48 h at 37 °C, 5% CO2, 95% air, and 100% relative humidity. For adherent cells, the assay is terminated by the addition of cold TCA. Cells are fixed in situ by the gentle addition of […] of cold 50% (w/v) TCA (final concentration,10% TCA) and incubated for 60 min at 4 °C. The supernatant is discarded, and the plates are washed five times with tap water and air dried. Sulforhodamine B (SRB) solution (100 ml) at 0.4% (w/v) in 1% acetic acid is added to each well, and plates are incubated for 10 min at room temperature. After staining, unbound dye is removed by washing five times with 1% acetic acid and the plates are air dried. Bound stain is subsequently dissolved with 10 μM trizma base, and the absorbance is read on an automated plate reader at a wavelength of 515 nm. For suspension cells, the methodology is the same except that the assay is terminated by fixing settled cells at the bottom of the wells by gently adding […] of 80% TCA (final concentration, 16% TCA).
Using the seven absorbance measurements [time zero, (Tz), control growth, (C), and test growth in the presence of drug at the five concentration levels (Ti)], the percentage growth is calculated at each of the drug concentrations levels. Percentage growth inhibition is calculated as: [(Ti -Tz)/(C - Tz)] x 100 for concentrations for which Ti>/ ¼ Tz and [(Ti -Tz) / Tz] x100 for concentrations for which Ti <Tz.
Three dose response parameters are calculated for each experimental agent. Growth inhibition of 50% (GI50) is calculated from [(Ti -Tz)/(C - Tz)] x 100 =50, which is the drug concentration resulting in a 50% reduction in the net protein increase (as measured by SRB staining) in control cells during the drug incubation. The drug concentration resulting in total growth inhibition (TGI) is calculated from Ti ¼ Tz. The LC50 (concentration of drug resulting in a 50% reduction in the measured protein at the end of the drug treatment as compared to that at the beginning) indicating a net loss of cells following treatment is calculated from [(Ti - Tz) / Tz] x100 = -50. Values are calculated for each of these three parameters if the level of activity is reached; however, if the effect is not reached or is exceeded, the value for that parameter is expressed as greater or less than the maximum or minimum concentration tested.

NCI/ADR-RES = assay type: cell-based; settings: Homo sapiens
[1] = 5 log dose, 48 h, read-out: LC50 (the source's name)
[2] = single dose 10 μM, read-out: percent cell growth promotion

Structure (SMILES): Clc1ccc(Nc2nnc(CNc3ccccc3)c3ccccc23)cc1 [Compound 16a, N-(4-Chlorophenyl)-4-((phenylamino)methyl)phthalazin-1-amine]
- GI50 (RXF 393; RXF 393, 5 log dose): 2.6 µM
- IC (TGI) (RXF 393; RXF 393, 5 log dose): 8.12 µM
- CC50 (RXF 393; RXF 393, 5 log dose, 48 h, read-out: LC50 (the source's name)): > 25 µM
- activity at 10 µM (RXF 393; RXF 393, single dose 10 μM, read-out: percent cell growth promotion): 25.7%
- GI50 (PC-3; PC-3, 5 log dose): 14.4 µM
- IC (TGI) (PC-3; PC-3, 5 log dose): 14.4 µM
- CC50 (PC-3; PC-3, 5 log dose, 48 h, read-out: LC50 (the source's name)): > 25 µM
- activity at 10 µM (PC-3; PC-3, single dose 10 μM, read-out: percent cell growth promotion): 7.15%
- GI50 (KM12; KM12, 5 log dose): 3.05 µM
- IC (TGI) (KM12; KM12, 5 log dose): 9.91 µM
- CC50 (KM12; KM12, 5 log dose, 48 h, read-out: LC50 (the source's name)): > 25 µM
- activity at 10 µM (KM12; KM12, single dose 10 μM, read-out: percent cell growth promotion): 8.93%
- GI50 (OVCAR-3; OVCAR-3, 5 log dose): 3.51 µM
- IC (TGI) (OVCAR-3; OVCAR-3, 5 log dose): 8.69 µM
- CC50 (OVCAR-3; OVCAR-3, 5 log dose, 48 h, read-out: LC50 (the source's name)): 21.5 µM
- activity at 10 µM (OVCAR-3; OVCAR-3, single dose 10 μM, read-out: percent cell growth promotion): -1.64%
- GI50 (UO-31; UO-31, 5 log dose): 1.36 µM
- IC (TGI) (UO-31; UO-31, 5 log dose): 6.66 µM
- CC50 (UO-31; UO-31, 5 log dose, 48 h, read-out: LC50 (the source's name)): 23.8 µM
- activity at 10 µM (UO-31; UO-31, single dose 10 μM, read-out: percent cell growth promotion): 1.91%
- GI50 (UACC-257; UACC-257): 2.74 µM
- IC (TGI) (UACC-257; UACC-257, read-out: TGI): 6.87 µM
- activity at 10 µM (UACC-257; UACC-257, read-out: percent cell growth promotion): -6.49%
- CC50 (UACC-257; UACC-257, 5 log dose, 48 h, read-out: LC50 (the source's name)): 17.2 µM
- GI50 (HCC-2998; HCC-2998, 5 log dose): 4.85 µM
- IC (TGI) (HCC-2998; HCC-2998, 5 log dose): 1.59 µM
- LC50 (50% lethal concentration) (HCC-2998; HCC-2998, 5 log dose, 48 h): > 25 µM
- activity at 10 µM (HCC-2998; HCC-2998, single dose 10 μM, read-out: percent cell growth promotion): 18.3%
- GI50 (HOP-92; HOP-92, 5 log dose): 0.77 µM
- IC (TGI) (HOP-92; HOP-92, 5 log dose): 6.29 µM
- CC50 (HOP-92; HOP-92, 5 log dose, 48 h, read-out: LC50 (the source's name)): > 25 µM
- activity at 10 µM (HOP-92; HOP-92, single dose 10 μM, read-out: percent cell growth promotion): -19.4%
- GI50 (NCI-H460; NCI-H460, 5 log dose): 3.21 µM
- IC (TGI) (NCI-H460; NCI-H460, 5 log dose): 9.98 µM
- LC50 (concentration causing 50% cell kill) (NCI-H460; NCI-H460, 5 log dose, 48 h): > 25 µM
- activity at 10 µM (NCI-H460; NCI-H460, single dose 10 μM, read-out: percent cell growth promotion): 17.6%
- GI50 (HL-60(TB); 5 log dose): 3.71 µM
- IC (TGI) (HL-60(TB); 5 log dose): 13 µM
- CC50 (HL-60(TB); [1]): > 25 µM
- activity at 10 µM (HL-60(TB); [2]): -13.3%
- GI50 (SF-268; SF-268, 5 log dose): 3.28 µM
- IC (TGI) (SF-268; SF-268, 5 log dose): 14.5 µM
- CC50 (SF-268; SF-268, 5 log dose, 48 h, read-out: LC50 (the source's name)): > 25 µM
- activity at 10 µM (SF-268; SF-268, single dose 10 μM, read-out: percent cell growth promotion): 20.9%
- activity at 10 µM (TK-10): -0.69%
- GI50 (OVCAR-8; OVCAR-8, 5 log dose): 4.63 µM
- IC (TGI) (OVCAR-8; OVCAR-8, 5 log dose): 16.8 µM
- CC50 (OVCAR-8; OVCAR-8, 5 log dose, 48 h, read-out: LC50 (the source's name)): > 25 µM
- activity at 10 µM (OVCAR-8; OVCAR-8, single dose 10 μM, read-out: percent cell growth promotion): 18.2%
- GI50 (SK-OV-3; SK-OV-3, 5 log dose): 3.17 µM
- IC (TGI) (SK-OV-3; SK-OV-3, 5 log dose): 11.4 µM
- CC50 (SK-OV-3; SK-OV-3, 5 log dose, 48 h, read-out: LC50 (the source's name)): > 25 µM
- activity at 10 µM (SK-OV-3; SK-OV-3, single dose 10 μM, read-out: percent cell growth promotion): 22%
- GI50 (MOLT-4; MOLT-4, 5 log dose): 1.71 µM
- IC (TGI) (MOLT-4; MOLT-4, 5 log dose): 8.75 µM
- CC50 (MOLT-4; MOLT-4, 5 log dose, 48 h, read-out: LC50 (the source's name)): > 25 µM
- activity at 10 µM (MOLT-4; MOLT-4, single dose 10 μM, read-out: percent cell growth promotion): -9.21%
- GI50 (A549/ATCC; 5 log dose): 3.17 µM
- IC (TGI) (A549/ATCC; 5 log dose): 20 µM
- LC50 (concentration killing 50% of cells) (A549/ATCC; 5 log dose, 48 h): > 25 µM
- activity at 10 µM (A549/ATCC; [2]): 20.3%
- GI50 (HT29; HT29, 5 log dose): 1.46 µM
- IC (TGI) (HT29; HT29, 5 log dose): 6.36 µM
- CC50 (HT29; HT29, 5 log dose, 48 h, read-out: LC50 (the source's name)): 21.2 µM
- activity at 10 µM (HT29; HT29, single dose 10 μM, read-out: percent cell growth promotion): 0.55%
- activity at 10 µM (MDA-MB-468; MDA-MB-468, MDA-MBA-468, single dose 10 μM, read-out: percent cell growth promotion): -16.4%
- GI50 (MDA-MB-468; MDA-MB-468, 5 log dose): 1.9 µM
- IC (TGI) (MDA-MB-468; MDA-MB-468, 5 log dose): 11.5 µM
- CC50 (MDA-MB-468; MDA-MB-468, 5 log dose, 48 h, read-out: LC50 (the source's name)): > 25 µM
- GI50 (NCI/ADR-RES; 5 log dose): 4.12 µM
- IC (TGI) (NCI/ADR-RES; 5 log dose): 17 µM
- CC50 (NCI/ADR-RES; [1]): > 25 µM
- activity at 10 µM (NCI/ADR-RES; [2]): 18.8%
